Laboratory results reported in patent US6737383B1, “Herbicidal oxadiazolidines” (priority 1999, dated 2004).

Columns and labels:
[1] = system: bedstraw; experiment: Test B pre/postemergence bedstraw; assay type: in vivo, Galium aparine; details: Postemergence
In short: (§1)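 Test chemicals in a non-phytotoxic solvent mixture with surfactant were sprayed preemergence onto planted seeds and postemergence onto plants 2 to 18 cm tall (1- to 4-leaf stage). After twelve to sixteen days in a greenhouse, injury was visually rated against untreated controls from 0 (no effect) to 10 (complete control).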

[2] = system: blackgrass; experiment: Test B pre/postemergence blackgrass; assay type: in vivo, Alopecurus myosuroides
In short: as §1

[3] = system: surinam grass; experiment: Test B pre/postemergence surinam grass; assay type: in vivo, Brachiaria decumbens
In short: as §1

[4] = system: cocklebur; experiment: Test B pre/postemergence cocklebur; assay type: in vivo, Xanthium strumarium
In short: as §1

[5] = system: corn; experiment: Test B pre/postemergence corn; assay type: in vivo, Zea mays
In short: as §1

[6] = system: morningglory; experiment: Test B pre/postemergence morningglory; assay type: in vivo, Ipomoea hederacea
In short: as §1

[7] = system: pigweed; experiment: Test B pre/postemergence pigweed; assay type: in vivo, Amaranthus retroflexus
In short: as §1

[8] = system: rape; experiment: Test B pre/postemergence rape; assay type: in vivo, Brassica napus
In short: as §1

[9] = system: soybean; experiment: Test B pre/postemergence soybean; assay type: in vivo, Glycine max
In short: as §1

[10] = system: sugar beet; experiment: Test B pre/postemergence sugar beet; assay type: in vivo, Beta vulgaris
In short: as §1

[11] = system: velvetleaf; experiment: Test B pre/postemergence velvetleaf; assay type: in vivo, Abutilon theophrasti
In short: as §1

[12] = system: wild oat; experiment: Test B pre/postemergence wild oat; assay type: in vivo, Avena fatua
In short: as §1

[13] = system: purple nutsedge; experiment: Test B pre/postemergence purple nutsedge; assay type: in vivo, Cyperus rotundus
In short: as §1

[14] = system: rice; experiment: Test B flood test rice; assay type: in vivo, Oryza sativa
In short: (§2)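 Each value is a visual injury score relative to controls, with 10 meaning complete control and 0 no effect. Evaluation took place twelve to sixteen days after the 2-leaf-stage plants were treated and kept in the greenhouse.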

[15] = system: smallflower flatsedge; experiment: Test B flood test smallflower flatsedge; assay type: in vivo, Cyperus difformis
In short: as §2

[16] = system: bamyardgrass; experiment: Test B flood test barnyardgrass; assay type: in vivo, Echinochloa crus-galli
In short: as §2

[17] = Postemergence, Rate 250 g/ha, scale 0 to 10
[18] = Postemergence, Rate 500 g/ha, scale of 0 to 10 where 0 is no effect and 10 is complete control
[19] = Preemergence, Rate 62 g/ha, scale 0 to 10 (0 no effect, 10 complete control)
[20] = Preemergence, Rate 125 g/ha, scale of 0 to 10 where 0 is no effect and 10 is complete control
[21] = Preemergence, Rate 250 g/ha, scale 0 to 10, 0 is no effect, 10 is complete control
[22] = Preemergence, Rate 500 g/ha, scale 0 to 10, 0 is no effect, 10 is complete control
[23] = Rate 62 g/ha, Postemergence, scale of 0 to 10 where 0 is no effect and 10 is complete control
[24] = Rate 125 g/ha, Postemergence, scale 0 to 10, 0 is no effect, 10 is complete control
[25] = Postemergence block (flood test species), Rate 250 g/ha, scale 0 to 10
[26] = Postemergence section (flood test species), Rate 500 g/ha, scale of 0 to 10 where 0 is no effect and 10 is complete control
[27] = Rate 125 g/ha, Postemergence section (flood test species), scale 0 to 10, 0 is no effect, 10 is complete control

CC(C)N(C(=O)n1oc(=O)n(CC2=NOCCC2)c1=O)c1ccccc1 [Compound 430]
Bedstraw plant response rating ([1]; Rate 250 g/ha, scale 0 to 10): 0 | Bedstraw plant response rating ([1]; Rate 500 g/ha, scale of 0 to 10 where 0 is no effect and 10 is complete control): 3 | Bedstraw plant response rating ([1]; Rate 125 g/ha, scale 0 to 10, 0 is no effect, 10 is complete control): 0 | Blackgrass plant response rating [2, 17]: 7 | Blackgrass plant response rating [2, 18]: 8 | Plant response rating, Blackgrass [2, 19]: 0 | Plant response rating, Blackgrass [2, 20]: 3 | Blackgrass plant response rating [2, 21]: 7 | Blackgrass plant response rating [2, 22]: 9 | Blackgrass plant response rating [2, 23]: 2 | Blackgrass plant response rating [2, 24]: 3 | B. signalgrass plant response rating ([3]; Postemergence, Rate 250 g/ha, scale 0 to 10, 0 no effect, 10 complete control): 6 | B. signalgrass plant response rating [3, 18]: 8 | Plant response rating, B. signalgrass [3, 19]: 1 | Plant response rating, B. signalgrass [3, 20]: 2 | B. signalgrass plant response rating [3, 21]: 3 | B. signalgrass plant response rating [3, 22]: 3 | B. signalgrass plant response rating [3, 23]: 0 | B. signalgrass plant response rating [3, 24]: 1 | Cocklebur plant response rating [4, 17]: 0 | Cocklebur plant response rating [4, 18]: 1 | Plant response rating, Cocklebur [4, 19]: 0 | Plant response rating, Cocklebur [4, 20]: 0 | Cocklebur plant response rating [4, 21]: 0 | Cocklebur plant response rating [4, 22]: 0 | Cocklebur plant response rating [4, 23]: 0 | Cocklebur plant response rating [4, 24]: 0 | Corn plant response rating [5, 17]: 2 | Corn plant response rating [5, 18]: 4 | Plant response rating, Corn [5, 19]: 0 | Plant response rating, Corn [5, 20]: 0 | Corn plant response rating [5, 21]: 0 | Corn plant response rating [5, 22]: 2 | Corn plant response rating [5, 23]: 0 | Corn plant response rating [5, 24]: 0 | Morningglory plant response rating [6, 17]: 3 | Morningglory plant response rating [6, 18]: 3 | Plant response rating, Morningglory [6, 19]: 0 | Plant response rating, Morningglory [6, 20]: 0 | Morningglory plant response rating [6, 21]: 0 | Morningglory plant response rating [6, 22]: 0 | Morningglory plant response rating [6, 24]: 2 | Redroot pigweed plant response rating [7, 17]: 3 | Redroot pigweed plant response rating [7, 18]: 3 | Plant response rating, Redroot pigweed [7, 19]: 0 | Plant response rating, Redroot pigweed [7, 20]: 0 | Redroot pigweed plant response rating [7, 21]: 2 | Redroot pigweed plant response rating [7, 22]: 7 | Redroot pigweed plant response rating [7, 24]: 2 | Rape plant response rating [8, 17]: 0 | Rape plant response rating [8, 18]: 0 | Plant response rating, Rape [8, 19]: 0 | Plant response rating, Rape [8, 20]: 0 | Rape plant response rating [8, 21]: 0 | Rape plant response rating [8, 22]: 4 | Rape plant response rating [8, 24]: 0 | Soybean plant response rating [9, 17]: 3 | Soybean plant response rating [9, 18]: 3 | Plant response rating, Soybean [9, 19]: 0 | Plant response rating, Soybean [9, 20]: 0 | Soybean plant response rating [9, 21]: 0 | Soybean plant response rating [9, 22]: 0 | Soybean plant response rating [9, 24]: 1 | Sugarbeets plant response rating [10, 17]: 0 | Sugarbeets plant response rating [10, 18]: 0 | Plant response rating, Sugarbeets [10, 19]: 0 | Plant response rating, Sugarbeets [10, 20]: 0 | Sugarbeets plant response rating [10, 21]: 0 | Sugarbeets plant response rating [10, 22]: 0 | Sugarbeets plant response rating [10, 24]: 0 | Velvetleaf plant response rating [11, 17]: 0 | Velvetleaf plant response rating [11, 18]: 3 | Plant response rating, Velvetleaf [11, 19]: 0 | Plant response rating, Velvetleaf [11, 20]: 2 | Velvetleaf plant response rating [11, 21]: 4 | Velvetleaf plant response rating [11, 22]: 7 | Velvetleaf plant response rating [11, 24]: 0 | Wild oats plant response rating [12, 17]: 0 | Wild oats plant response rating [12, 18]: 0 | Plant response rating, Wild oats [12, 19]: 0 | Plant response rating, Wild oats [12, 20]: 0 | Wild oats plant response rating [12, 21]: 3 | Wild oats plant response rating [12, 22]: 3 | Wild oats plant response rating [12, 24]: 0 | Nutsedge plant response rating [13, 17]: 2 | Nutsedge plant response rating [13, 18]: 6 | Plant response rating, Nutsedge [13, 19]: 0 | Plant response rating, Nutsedge [13, 20]: 0 | Nutsedge plant response rating [13, 21]: 0 | Nutsedge plant response rating [13, 22]: 0 | Nutsedge plant response rating [13, 24]: 0 | Rice plant response rating [14, 25]: 0 | Rice plant response rating [14, 26]: 0 | Rice plant response rating [14, 27]: 0 | S. Flatsedge plant response rating [15, 25]: 0 | S. Flatsedge plant response rating [15, 26]: 0 | S. Flatsedge plant response rating [15, 27]: 0 | Barnyardgrass plant response rating [16, 25]: 0 | Barnyardgrass plant response rating [16, 26]: 0 | Barnyardgrass plant response rating ([16]; Rate 62 g/ha, Postemergence (flood test species), scale of 0 to 10 where 0 is no effect and 10 is complete control): 0 | Barnyardgrass plant response rating [16, 27]: 0
